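Following 48 hours of exposure in 96-well plates, responses at five concentrations were used to interpolate endpoints linearly. Abbreviation: GI50, concentration required for 50% inhibition of growth.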 Calls of active or inactive are those of the source. Rule as the data show it: active = GI50 up to about 1.1 µM and inactive = higher.

Test systems include KM12; K562; OVCAR-3; MDA-MB-231; U-251; 786-0; MDA-MB-435; NCI-H23; COLO 205; MOLT-4; SF-539; SNB-19; T47D; HCC 2998; SK-MEL-2; BT-549; MCF7; HL-60; HT-29; LOX IMVI.
Holding throughout (assay): growth of human tumour cells (NCI), 48 h

Turning to `CCOC(=O)CSc1nc(-c2ccc(OC)cc2)c(C#N)c(=O)[nH]1`, the GI50 in the test on KM12, in the test on K562, with OVCAR-3, in the test with MDA-MB-231, in the test on U-251 and in the test on 786-0 was > 100 µM (inactive) in each case. For the same compound, the GI50 with MDA-MB-435, in the test on NCI-H23, in the test on COLO 205, with MOLT-4, with SF-539 and with SNB-19 was > 100 µM (inactive) in each case. For the same compound, the GI50 with T47D was > 100 µM (inactive); in the test with HCC 2998, > 100 µM (inactive); in the test on SK-MEL-2 it was > 100 µM (inactive); in the test with BT-549, > 100 µM (inactive); in the test with MCF7 it was > 100 µM (inactive); in the test on HL-60, 0.0495 µM (active). Moreover, the GI50 with HT-29 is > 100 µM (inactive).

For the compound `CC(C)(C)OC(=O)NCC(=O)N1CCCN(C(=O)CNC(=O)OC(C)(C)C)CC1`, the GI50 in the test on KM12, in the test on K562, with OVCAR-3, in the test with MDA-MB-231, in the test with U-251 and with 786-0 was > 100 µM (inactive) in each case. Besides, the GI50 in the test on MDA-MB-435, in the test with NCI-H23, in the test with COLO 205, in the test with MOLT-4, with SNB-19 and in the test with LOX IMVI was > 100 µM (inactive) in each case. Besides, the GI50 in the test on T47D, in the test on HCC 2998, with SK-MEL-2, in the test on BT-549, in the test on MCF7 and in the test on HL-60 was > 100 µM (inactive) each time. Further, in the test on HT-29, the GI50 is > 100 µM (inactive).

On to `Cc1cc(C)nc(NC(=S)Nc2ccc([N+](=O)[O-])cc2)c1`, for which the GI50 in the test on KM12 is > 100 µM (inactive); with K562, 45.2 µM (inactive); in the test with MDA-MB-231 it was > 100 µM (inactive); in the test with U-251, > 100 µM (inactive); with 786-0, > 100 µM (inactive); in the test with MDA-MB-435, > 100 µM (inactive). The GI50 in the test on NCI-H23, in the test with COLO 205, in the test on MOLT-4, in the test on SF-539, in the test on SNB-19 and with LOX IMVI was > 100 µM (inactive) throughout. Besides, the GI50 in the test on T47D, with HCC 2998, with SK-MEL-2, in the test on BT-549, in the test on MCF7 and in the test with HL-60 was > 100 µM (inactive) each time. For the same compound, in the test on HT-29, the GI50 was > 100 µM (inactive).

Turning to `Cc1ccccc1C(=O)C#Cc1cn(C2CC(O)C(CO)O2)c(=O)[nH]c1=O` (stereo not given), the GI50 with KM12 was > 100 µM (inactive); in the test on K562, 57 µM (inactive); with OVCAR-3, > 100 µM (inactive); in the test on MDA-MB-231, > 100 µM (inactive); in the test on U-251 it was > 100 µM (inactive); with 786-0, > 100 µM (inactive). The GI50 in the test on MDA-MB-435 was > 100 µM (inactive); with NCI-H23, > 100 µM (inactive); in the test on COLO 205, > 100 µM (inactive); in the test on MOLT-4, 16.1 µM (inactive); in the test with SF-539 it was > 100 µM (inactive); in the test on SNB-19 it was > 100 µM (inactive). The GI50 in the test on T47D was 68.2 µM (inactive); in the test with HCC 2998 it was > 100 µM (inactive); in the test on SK-MEL-2, > 100 µM (inactive); with BT-549, > 100 µM (inactive); in the test on MCF7 it was > 100 µM (inactive); in the test on HL-60 it was > 100 µM (inactive). In the test on HT-29, the GI50 is > 100 µM (inactive).

With `O=[N+]([O-])C(C=C(n1nnc2ccccc21)n1nnc2ccccc21)=C(n1nnc2ccccc21)n1nnc2ccccc21`, the GI50 was > 100 µM (inactive) with KM12; 42.3 µM (inactive) with K562; > 100 µM (inactive) in the test with OVCAR-3; > 100 µM (inactive) in the test with MDA-MB-231; > 100 µM (inactive) in the test on U-251; > 100 µM (inactive) in the test with 786-0. Also, the GI50 is > 100 µM (inactive) with MDA-MB-435; > 100 µM (inactive) in the test with NCI-H23; > 100 µM (inactive) in the test on COLO 205; 26.2 µM (inactive) in the test with MOLT-4; > 100 µM (inactive) in the test with SF-539; 0.975 µM (active) in the test on SNB-19. Besides, the GI50 with LOX IMVI is > 100 µM (inactive); in the test with T47D it was > 100 µM (inactive); in the test with HCC 2998 it was > 100 µM (inactive); with BT-549, > 100 µM (inactive); in the test with MCF7, > 100 µM (inactive); in the test with HL-60, 41 µM (inactive). Further, in the test with HT-29, the GI50 is > 100 µM (inactive).

In the case of `Nn1c(-c2ccccc2)nn(C(=O)c2ccccc2)c1=O`, the GI50 in the test on KM12, with K562, in the test with OVCAR-3, in the test on MDA-MB-231, with U-251 and in the test on 786-0 was > 100 µM (inactive) each time. Moreover, the GI50 in the test on MDA-MB-435, in the test with NCI-H23, in the test on COLO 205, in the test with MOLT-4, in the test on SF-539 and in the test on SNB-19 was > 100 µM (inactive) in each case. Moreover, the GI50 in the test with LOX IMVI, with T47D, with HCC 2998, in the test with BT-549, in the test on MCF7 and with HL-60 was > 100 µM (inactive) in each case. Also, in the test with HT-29, the GI50 was > 100 µM (inactive).

As for `Clc1cccc(-c2sc(-c3cccs3)cc2Cc2cccs2)c1`, the GI50 in the test with KM12 was > 10 µM (inactive); with K562 it was > 10 µM (inactive); in the test on MDA-MB-231 it was 9.84 µM (inactive); in the test on 786-0 it was > 10 µM (inactive); in the test on MDA-MB-435 it was > 10 µM (inactive); in the test with NCI-H23 it was > 10 µM (inactive). Also, the GI50 with COLO 205 is > 10 µM (inactive); in the test on MOLT-4, > 10 µM (inactive); with SF-539 it was > 10 µM (inactive); with SNB-19 it was > 10 µM (inactive); in the test with LOX IMVI, > 10 µM (inactive); in the test on T47D, 0.74 µM (active). Besides, the GI50 in the test on HCC 2998 is > 10 µM (inactive); in the test on BT-549, > 10 µM (inactive); in the test on MCF7, 3.71 µM (inactive); in the test on HL-60 it was > 10 µM (inactive); with HT-29, > 10 µM (inactive).

`O=S1(=O)OCc2ccccc21`: the GI50 in the test on KM12 is > 100 µM (inactive); in the test on K562, > 100 µM (inactive); in the test with OVCAR-3, 32.5 µM (inactive); in the test on MDA-MB-231 it was 20.8 µM (inactive); with U-251, > 100 µM (inactive); with 786-0 it was 60.1 µM (inactive). For the same compound, the GI50 with MDA-MB-435 was 58.1 µM (inactive); with NCI-H23, > 100 µM (inactive); in the test with COLO 205 it was > 100 µM (inactive); in the test with MOLT-4, 15.7 µM (inactive); in the test with SF-539 it was 25.2 µM (inactive); in the test with SNB-19, > 100 µM (inactive). In addition, the GI50 in the test on T47D was > 100 µM (inactive); with HCC 2998, > 100 µM (inactive); in the test on SK-MEL-2, > 100 µM (inactive); with BT-549, > 100 µM (inactive); with MCF7, > 100 µM (inactive); in the test with HL-60, 59.3 µM (inactive). Besides, in the test on HT-29, the GI50 is > 100 µM (inactive).

The values above are taken from ChEMBL document CHEMBL1201862, “PubChem BioAssay data set” (2004).
